The values below come from patent US9393316B2, “Cancer targeting peptides for enhancing anti-cancer drug delivery and therapeutic efficiencies” (priority 2014, dated 2016).

One data set has as its system colorectal cancer. Nature of the data set: Cytotoxicity of several anticancer drugs. The following applies: compared with other colon and rectal cancer drugs approved by the FDA. Type of data set: cell-based.
In data set [1] the test system is HCT116 xenografts. Description: In vivo peptide competitive inhibition of phage tumor homing. Details: species or system mice. Particulars: co-injected with corresponding phage clone. As for the experimental part: (§1) Non-obese diabetic-severe combined immunodeficiency (NOD/SCID) mice were injected subcutaneously (s.c.) into the dorsolateral flank with 5×10^6 HCT116 cells. When the xenograft tumor size reached 300±50 mm^3, the mice were injected intravascularly (i.v.) with 2×10^11 pfu of the targeting phage or control phage M13KO7. Seven min after injection, the mice were sacrificed and perfused through the heart with 50 mL of PBS to wash unbound phages. After perfusion, xenograft tumor and mouse organs were taken out, washed three times with cold PBS, and cut into pans, with some of them homogenized. The phages bound to each tissue sample were recovered by log-phase Escherichia coli ER2738 culture and were titered on LB/IPTG/X-Gal agar plates. In peptide competitive inhibition experiments, 2×10^9 pfu of phage was co-injected with 100 μg of corresponding peptide or an unrelated control peptide.
The tumor-homing ability of HCT63, HCT69 and HCT74 phages were further confirmed by peptide competitive inhibition experiment. Mice bearing HCT116 xenografts were co-injected with HCT63, HCT69 and HCT74 phages clones and the homologous cognate synthetic peptide; pHCT63, pHCT69 and pHCT74 peptides (SEQ ID NOs: 1-3, respectively), respectively.

A further data set deals with LS174T. Nature of the data set: Flow cytometry surface binding of phage clones. Details: species or system human. The procedure:
(§2) Cells were grown to 70-80% confluence and were harvested with 10 mM EDTA in PBS. Peripheral blood mononuclear cells were prepared by using Ficoll-Paque Plus density gradient separation. After washing and suspending the cells with FACS buffer (PBS containing 1% fetal bovine serum), the cells were incubated for 1 hr at 4° C. with 5×10^9, 1×10^9 cfu individual phage clones or control phage, respectively. After washing twice with FACS buffer, cells were incubated with mouse anti-M13 monoclonal antibody (GE Healthcare) at 1:2000 dilution for 1 hr followed by 30 min with phycoerythrin (PE)-conjugated goat anti-mouse secondary antibody (Jackson ImmunoResearch) at 1:250 dilution at 4° C. The emission fluorescence signals were measured using FACSCantoll (Becton Dickinson) and were analyzed by FlowJo software.

For the next data set, the system named is HT29. Description: Flow cytometry surface binding of phage clones. Details: species or system human. The procedure:
as §2

For the next data set, the system named is COLO205. Description: Flow cytometry surface binding of phage clones. Details: species or system human. As for the experimental part:
as §2

Data set [2] relates to HCT116 cells. Nature of the data set: Flow cytometry surface binding of phage clones. Details: species or system human. The procedure: as §2
On the technique in general: In flow cytometry, cells or beads pass a laser one at a time.

The test system of a further data set is SW620. Description: Flow cytometry surface binding of phage clones. Details: species or system human. As for the experimental part: as §2
The test system of data set [3] is HCT116 xenografts. Nature of the data set: In vivo tumor homing, phage titer in tumor and organs. The following applies: 2×10^11 pfu i.v., PBS perfusion; vs brain, lungs, heart. Details: species or system mice. As for the experimental part: as §1
To investigate the targeting ability of the selected phage clones in vivo, mice bearing HCT116 xenografts (300 mm^3) were injected with 2×10^11 pfu of either the selected phages or control phage through the tail vein. Phages were circulated and then were perfused with PBS buffer to wash out non-specific binders in circulation. After perfusion, we recovered and determined the […] of phage in tumor masses and normal organs.

The test system of a further data set is Mahlavu. Nature of the data set: Cellular ELISA of phage clones. Type of data set: binding, human. As for the experimental part:
(§3) The selected phages were further identified by ELISA screening. 1×10^4 cells were seeded into each well of 96-well ELISA plates (Falcon, Calif., USA) overnight and were fixed with 2% paraformaldehyde or methanol/acetone (1:1) for 10 min at RT. The plates were washed twice with PBS and were blocked with 1% BSA in PBS (w/v) for 30 min at RT. Then individual phage clones were added and incubated for 1 hr at RT. Following washing three times with PBS, the plates were incubated with horseradish peroxidase (HRP)-conjugated mouse anti-M13 phage antibody (GE Healthcare) at 1:2000 dilution for 1 hr at RT. The plates were washed three times with PBS again, and were subsequently incubated with the peroxidase substrate o-phenylenediamine dihydrochloride (OPD; Sigma) plus H2O2. The reaction was terminated by 3 N HCl, and the absorbance was measured using microplate reader (Model 680, BioRad) at 490 nm. To evaluate the binding activities of the three selected phage clones to various human cancer cell lines, cellular ELISA was performed to detect sixteen types of human cancer cell lines, including A498, HTB-10, B16-F10, SKOV3, PC-3, U2OS, 1112SK, […], SAS, H460, MIA Paca-2, HCT116, HUVAC, CL1-5, Mahlavu, and MDA-MB-231.
Background: In an ELISA, binding on a coated surface is turned into a signal by an enzyme label.

For another data set, the system named is MIA Paca-2. Description: Cellular ELISA of phage clones. The class given is binding, human. The procedure: as §3
The test system of another data set is HUVAC. Nature of the data set: Cellular ELISA of phage clones. The class given is binding, human. As for the experimental part:
as §3

A further data set deals with MDA-MB-231. Nature of the data set: Cellular ELISA of phage clones. The class given is binding, human. The procedure: as §3
The next data set has as its system A498. Nature of the data set: Cellular ELISA of phage clones. Type of data set: binding, human. As for the experimental part:
as §3

In the next data set the test system is SKOV3. Description: Cellular ELISA of phage clones. Type of data set: binding, human. As for the experimental part:
as §3

The next data set deals with PC-3. Description: Cellular ELISA of phage clones. Type of data set: binding, human. The procedure:
as §3

The test system of the next data set is H460. Nature of the data set: Cellular ELISA of phage clones. Type of data set: binding, human. As for the experimental part:
as §3

For another data set, the system named is 1112SK. Nature of the data set: Cellular ELISA of phage clones. Type of data set: binding, human. The procedure:
as §3

A further data set has as its system H184. Description: Cellular ELISA of phage clones. Type of data set: binding, human. The procedure:
as §3

The test system of another data set is SAS. Nature of the data set: Cellular ELISA of phage clones. Type of data set: binding, human. As for the experimental part:
as §3

In another data set the test system is U2OS. Description: Cellular ELISA of phage clones. Type of data set: binding, human. As for the experimental part: as §3
The subject of a further data set is CL1-5. Nature of the data set: Cellular ELISA of phage clones. The class given is binding, human. The procedure: as §3
The subject of data set [4] is HCT116 cells. Nature of the data set: ELISA screening of phage clones on HCT116 cells (cellular ELISA). The following applies: HCT116, cell line panel. Type of data set: binding, human. The procedure: The selected phages were further identified by ELISA screening. 1×10^4 cells were seeded into each well of 96-well ELISA plates (Falcon, Calif., USA) overnight and were fixed with 2% paraformaldehyde or methanol/acetone (1:1) for 10 min at RT. The plates were washed twice with PBS and were blocked with 1% BSA in PBS (w/v) for 30 min at RT. Then individual phage clones were added and incubated for 1 hr at RT. Following washing three times with PBS, the plates were incubated with horseradish peroxidase (HRP)-conjugated mouse anti-M13 phage antibody (GE Healthcare) at 1:2000 dilution for 1 hr at RT. The plates were washed three times with PBS again, and were subsequently incubated with the peroxidase substrate o-phenylenediamine dihydrochloride (OPD; Sigma) plus H2O2. The reaction was terminated by 3 N HCl, and the absorbance was measured using microplate reader (Model 680, BioRad) at 490 nm.

For data set [5], the system named is HCT116 xenografts. Description: Immunohistochemical localization of phages in xenograft tumor and organs. The following applies: tumor vs brain, heart, lungs, colon. The class given is in vivo, mice. The procedure:
The tissue samples from in vivo phage homing experiment were embedded in frozen blocks. To evaluate the phage distribution in each tissue by immunohistochemistry, the frozen specimens were cut to 8-μm-thick sections and were collected on coated slides. The slides were washed with cold PBS to remove OCT and were fixed with 4% paraformaldehyde for 10 min at RT. To block endogenous peroxidase activity, the slides were soaked with 3% hydrogen peroxide in methanol for 30 min at RT. The nonspecific antibody binding sites were blocked by immersing the section with 1% BSA in PBS for 30 min at RT. The tissue sections were incubated with mouse anti-M13 monoclonal antibody at 1:250 dilution for 1 hr, followed by adding Super Enhancer reagent (Super SENSITIVE™ Polymer HRP Detection System/DAB, BioGenex) for 20 min and Poly-HRP reagent (BioGenex) for 30 min. After washing, the sections were developed with DAB (3,3′-diaminobenzidine) Chromogen (BioGenex) supplemented with Stable DAB buffer. The reaction was stopped by adding PBS. For nuclei staining, the slides were immersed in hematoxylin for 5 min, and were then mounted with mounting solution to terminate the reaction. The images of sections were taken and analyzed using automated acquisition system (TissueGnostics).

The subject of the next data set is B16-F10. Nature of the data set: Cellular ELISA of phage clones. The class given is binding, mouse. As for the experimental part:
as §3

Data set [6] deals with peripheral blood mononuclear cells (PBMC). Description: Flow cytometry binding of phage clones to normal cells. The following applies: human PBMC. The procedure:
as §2

The next data set concerns HTB-10. Nature of the data set: Cellular ELISA of phage clones. The class given is binding, human. The procedure:
as §3

For `CCC1=C[C@@H]2CN(C1)Cc1c([nH]c3ccccc13)[C@@](C(=O)OC)(c1cc3c(cc1OC)N(C)[C@H]1[C@@](O)(C(=O)OC)[C@H](OC(C)=O)[C@]4(CC)C=CCN5CC[C@]31[C@@H]54)C2` [Vinorelbine, vinorelbine], the cytotoxicity profile result in the data set on colorectal cancer is “significantly better cytotoxicity profiles”.

As for RLNLDIIAVTSV (HCT-63) [pHCT63], the “inhibition of phage recovery from tumor tissue by cognate peptide” value (“inhibition of phage recovery” below) in the data set on HCT116 xenografts [1] is on record as “markedly inhibited the recovery of phage particles from tumor tissue”.

Take RLNLDIIAVTSV [HCT63]: the “binding activity by FACS” value in the data set with LS174T was “reacted strongly”; in the data set with HT29 it was “reacted strongly”; in the data set with COLO205, “moderately”; in the data set with SW620, “reacted strongly”. Also, the “cell surface-binding activity by flow cytometry” value in the data set on HCT116 cells [2] is given as “reacted strongly”. For the same molecule, in the data set with HCT116 xenografts [3], the “phage accumulation in tumor mass vs normal organs (phage titer)” value is “significantly accumulated in the tumor mass”. Further, the “binding by cellular ELISA” value in the data set with Mahlavu, in the data set with MIA Paca-2, in the data set on HUVAC, in the data set with MDA-MB-231, in the data set with A498 and in the data set on SKOV3 was “high binding specificity” each time. Also, the “binding by cellular ELISA” value in the data set with PC-3, in the data set on H460, in the data set on 1112SK, with H184, in the data set with SAS and with U2OS was “high binding specificity” throughout. The “binding by cellular ELISA” value in the data set with CL1-5, with HCT116 cells [4] and with B16-F10 was “high binding specificity” each time. The “phage localization by immunostaining of tissue sections” value is reported as “selectively localized in tumor tissues” in the data set with HCT116 xenografts [5] and “strong accumulated in the tumor” in the data set on HCT116 xenografts [5] (listed as HCT-63). For the same molecule, the “binding activity to PBMC (normal cells) by FACS” value in data set [6] is reported as “not to normal cells”.

Consider SSMDIVLRAPLM (HCT-74) [pHCT74], for which the “inhibition of phage recovery” value with HCT116 xenografts [1] is recorded as “markedly inhibited the recovery of phage particles from tumor tissue”.

With TSVSIVSTVLTP (HCT-69) [pHCT69], the “inhibition of phage recovery” value in the data set on HCT116 xenografts [1] is “markedly inhibited the recovery of phage particles from tumor tissue”.

Consider TSVSIVSTVLTP [HCT69], for which the “binding activity by FACS” value was “moderate affinity” with LS174T, “high binding affinity” in the data set on HT29, “weak affinity” with COLO205 and “high binding affinity” with SW620. In the data set on HCT116 cells [2], the “cell surface-binding activity by flow cytometry” value was “high binding affinity”. For the same molecule, the “phage accumulation in tumor mass vs normal organs (phage titer)” value in the data set with HCT116 xenografts [3] was “significantly accumulated in the tumor mass”. Also, the “binding by cellular ELISA” value with Mahlavu, with MIA Paca-2, with HUVAC, with MDA-MB-231, in the data set with A498 and in the data set with SKOV3 was “highly specific binding” in each case. For the same molecule, the “binding by cellular ELISA” value was “highly specific binding” in the data set with PC-3; “moderate binding” with HTB-10; “highly specific binding” in the data set with H460; “highly specific binding” in the data set with 1112SK; “highly specific binding” in the data set with H184; “highly specific binding” with SAS. Also, the “binding by cellular ELISA” value in the data set with U2OS was “highly specific binding”; in the data set with CL1-5, “moderate binding”; with HCT116 cells [4], “highly specific binding”; in the data set with B16-F10, “highly specific binding”. For the same molecule, the entries for the “phage localization by immunostaining of tissue sections” value in the data set on HCT116 xenografts [5] and in the data set with HCT116 xenografts [5] (listed as HCT-69) were “selectively localized in tumor tissues” and “strong accumulated in the tumor”, respectively. Moreover, in data set [6], the “binding activity to PBMC (normal cells) by FACS” value is “not to normal cells”.
